Experiments:
[1] = system: βARR2 recruitment to β2V2R; experiment: PathHunter βARR2 recruitment to β2V2R in U2OS cells; type: cell-based; conditions: 50 μM (recruitment), 25 μM (internalization); n = 1–2; Reviewer Fig. R2
Description: β-Arrestin recruitment to the agonist-activated receptor (β2V2R) was measured using the DiscoveRx PathHunter β-arrestin assay, which uses enzyme fragment complementation. […] Upon agonist-induced recruitment of βARR2 to β2V2R, the β-gal fragments complement to form a functional enzyme, generating a measurable chemiluminescent signal. The signal intensity correlates directly with the extent of βARR2 recruitment. U2OS cells co-expressing β2V2R and βARR2 were plated at a density of 25,000 cells per well in white, clear-bottom 96-well plates 24 h before treatment. On the day of the experiment, cells were treated with either a single dose (50 μM) or varying concentrations of a specific β-arrestin modulator or vehicle control in Hanks’ balanced salt solution (HBSS) (Sigma-Aldrich) with 20 mM HEPES (pH 7.4) and 0.05% BSA. Cells were incubated at 37 °C, 5% CO2, and about 100% relative humidity for about 30 min, followed by stimulation with either 10 nM Iso or a serial dilution of Iso for 60 min at 37 °C. After agonist stimulation, PathHunter reagents were added, and cells were incubated for another 60 min at ambient temperature. Luminescence signals were measured using a CLARIOstar microplate reader (BMG Labtech).

βARR1 L129G = target: T1, βARR1 L129G (Rattus norvegicus, UniProt P29066, L129G); experiment: ITC binding to βARR1 mutant L129G; conditions: 25 °C
T1 construct: βARR1 or βARR2 construct, with their C terminus truncated (at amino acid 393 or 394, respectively); GST (pGEX4T1) (N, cleaved yes); made in house; host or cells: E. coli BL21 (DE3) pLysS
Description: (§1) The expression and purification of β-arrestins have been described previously[44],[62]–[64]. In brief, E. coli BL21 (DE3) pLysS cells (New England Biolabs: C2527I) carrying pGEX4T1-Rattus norvegicus βARR1 or βARR2 construct, with their C terminus truncated (at amino acid 393 or 394, respectively), were cultured in Terrific Broth (Teknova) medium at 37 °C. After OD600 reached 0.6–0.8, the cells were induced with 0.1 mM isopropyl-β-D-thiogalactopyranoside (IPTG) at 18 °C overnight. Bacteria were collected by centrifugation (4,000 rpm), and cell pellets were resuspended in lysis buffer (20 mM HEPES, pH 8, 150 mM NaCl, 10% glycerol, 1 mM EDTA, 0.2 mM dithiothreitol (DTT), 1 mM phenylmethylsulfonyl fluoride, and 1 mM benzamidine) at 4 °C for 1 h. […] Eluted fractions were analysed by SDS–PAGE, pooled, concentrated using 30 kDa MWCO Amicon Ultra-15 Centrifugal Filter devices, flash-frozen in liquid nitrogen, and stored in aliquots at −80 °C. […] Protein concentrations for each protein were determined by ultraviolet absorption at 280 nm and extinction coefficients estimated using the ExPASy ProtParam tool[67].
(§2) ITC measurements were performed on a MicroCal iTC200 system at 25 °C. […] Protein concentrations were determined by spectrophotometry at 280 nm, using extinction coefficients calculated from each protein sequence via the ProtParam program. […]

βARR1 K138A = target: T2, βARR1 K138A (Rattus norvegicus, UniProt P29066, K138A); experiment: ITC binding to βARR1 mutant K138A; conditions: 25 °C
T2 construct: βARR1 or βARR2 construct, with their C terminus truncated (at amino acid 393 or 394, respectively); GST (pGEX4T1) (N, cleaved yes); made in house; host or cells: E. coli BL21 (DE3) pLysS
Description: as §1, §2

βARR1 R285A = target: T3, βARR1 R285A (Rattus norvegicus, UniProt P29066, R285A); experiment: ITC binding to βARR1 mutant R285A
T3 construct: βARR1 or βARR2 construct, with their C terminus truncated (at amino acid 393 or 394, respectively); GST (pGEX4T1) (N, cleaved yes); made in house; host or cells: E. coli BL21 (DE3) pLysS
Description: as §1, §2

T3 sequence (P29066 1-393 R285A): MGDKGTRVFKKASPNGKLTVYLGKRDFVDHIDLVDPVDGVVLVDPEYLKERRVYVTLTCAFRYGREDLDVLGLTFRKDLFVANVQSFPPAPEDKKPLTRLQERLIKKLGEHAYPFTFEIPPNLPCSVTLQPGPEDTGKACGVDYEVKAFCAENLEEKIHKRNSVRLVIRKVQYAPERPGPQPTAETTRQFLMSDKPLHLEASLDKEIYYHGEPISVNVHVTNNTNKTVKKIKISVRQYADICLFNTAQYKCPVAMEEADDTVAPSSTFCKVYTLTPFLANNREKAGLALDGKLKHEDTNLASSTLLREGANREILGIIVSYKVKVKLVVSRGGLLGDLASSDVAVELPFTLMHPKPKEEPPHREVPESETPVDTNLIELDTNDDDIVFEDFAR
T1 sequence (P29066 1-393 L129G): as the sequence (P29066 1-393 R285A) above, with L129G, A285R counted along it
T2 sequence (P29066 1-393 K138A): as the sequence (P29066 1-393 R285A) above, with K138A, A285R counted along it

## C=C1C(=O)[C@]23[C@H](O)[C@H]1CC[C@H]2[C@@]12CO[C@]3(O)[C@@H](O)[C@@H]1C(C)(C)CC[C@@H]2O [Cmpd-5, (1S,4aR,5S,6S,6aR,9S,11aS,11bS,14R)-1,5,6,14-tetrahydroxy−4,4-dimethyl-8-methylenedecahydro-1H-6,11b-(epoxymethano)-6a,9-methanocyclohepta[a]naphthalen-7(8H)-one]
[1]
  inhibition across a full Iso dose range, βarr2 recruitment and receptor internalization: robust
βARR1 L129G
  Kd: 2 ± 0.7 µM
βARR1 K138A
  Kd: 1 ± 0.3 µM
βARR1 R285A
  Kd fold over WT, βARR1 R285A: 46.5 fold
βARR1 R285A; 25 °C
  ΔH, βARR1 R285A: -1.5 kcal/mol
